Experimental findings from article PMC11509018, “Evaluation of the Role of Tanshinone I in an In Vitro System of Charcot-Marie-Tooth Disease Type 2N” (International Journal of Molecular Sciences, 2024) are described below.

For assay [1], the target named is T1, AlaRS^R329H (Homo sapiens, UniProt P49588, R329H).
T1 construct: made in house; host or cells: E. coli BL21 (DE3), pET-21a
T1 sequence (P49588 1-968 R329H): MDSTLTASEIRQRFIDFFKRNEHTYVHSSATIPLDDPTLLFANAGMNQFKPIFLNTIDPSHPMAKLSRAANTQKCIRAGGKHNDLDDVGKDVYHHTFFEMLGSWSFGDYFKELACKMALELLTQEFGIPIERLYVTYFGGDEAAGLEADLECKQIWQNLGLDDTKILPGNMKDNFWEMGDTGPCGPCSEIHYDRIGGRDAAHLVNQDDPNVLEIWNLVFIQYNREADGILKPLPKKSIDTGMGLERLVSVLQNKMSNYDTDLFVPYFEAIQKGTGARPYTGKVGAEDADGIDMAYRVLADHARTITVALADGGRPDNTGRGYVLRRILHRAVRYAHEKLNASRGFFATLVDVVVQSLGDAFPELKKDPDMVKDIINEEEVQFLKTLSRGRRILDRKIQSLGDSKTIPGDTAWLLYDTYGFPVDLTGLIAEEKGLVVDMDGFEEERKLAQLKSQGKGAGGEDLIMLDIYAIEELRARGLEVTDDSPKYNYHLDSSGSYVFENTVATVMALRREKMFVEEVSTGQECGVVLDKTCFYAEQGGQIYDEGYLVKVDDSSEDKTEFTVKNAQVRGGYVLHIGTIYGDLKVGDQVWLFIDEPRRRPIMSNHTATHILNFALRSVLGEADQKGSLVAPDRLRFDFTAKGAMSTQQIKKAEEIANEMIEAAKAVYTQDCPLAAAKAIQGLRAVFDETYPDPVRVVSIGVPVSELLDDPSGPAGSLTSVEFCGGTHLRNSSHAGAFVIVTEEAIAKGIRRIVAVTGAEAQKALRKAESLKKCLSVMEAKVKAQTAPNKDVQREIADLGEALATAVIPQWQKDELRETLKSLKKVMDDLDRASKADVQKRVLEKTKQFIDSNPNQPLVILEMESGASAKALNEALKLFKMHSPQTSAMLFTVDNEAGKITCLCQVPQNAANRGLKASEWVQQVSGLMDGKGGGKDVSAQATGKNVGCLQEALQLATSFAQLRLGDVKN
Put plainly: Proteolytic digestion assay (trypsin, SDS-PAGE). The settings on record: 3 h. The method, then: To delve deeper into the impact of selected small molecules on the structural conformation of AlaRS^R329H proteins, a series of proteolysis experiments were conducted. The small molecules were incubated with AlaRS^R329H proteins at room temperature for three hours, followed by SDS-PAGE analysis to evaluate their effects on the distribution of the digestion fragments. […] The AlaRS^R329H proteins (in the presence and absence of Atazanavir sulfate, Tanshinone I, Hederacolchiside A1, and Hexylresorcinol) were incubated with trypsin at different concentrations for 3 h before the reactions were quenched, and the products were separated by SDS-PAGE.

For assay [2], the target named is T2, AlaRS^N71Y (Homo sapiens, UniProt P49588, N71Y).
T2 construct: made in house; host or cells: E. coli BL21 (DE3), pET-21a
T2 sequence (P49588 1-968 N71Y): T1 sequence (P49588 1-968 R329H) with N71Y, H329R
Briefly: Biolayer interferometry (BLI). Type of assay: binding. The note with it: immobilized AlaRS^N71Y, mean ± SD, triplicate. How it is done:
Furthermore, we examined the interaction of Tanshinone I with additional AlaRS CMT mutants capable of binding to Nrp1 and causing conformational changes by BLI and proteolysis assays on additional related mutants. […] To further quantify the binding of small molecules to mutant proteins, binding experiments with AlaRS^R329H proteins and small molecules were conducted using an Octet R8 system (ForteBio, Fremont, CA, USA). Purified His-tagged AlaRS^R329H proteins (500 μg/mL) were captured on Ni-NTA biosensors (ForteBio, Fremont, CA, USA), achieving a saturation response of 4–5 nm after 300 s. The biosensors were then transferred to Octet buffer (PBS with 0.01% Tween 20) for 180 s to remove loosely bound, nonspecific proteins and to establish a stable baseline. Following this, the sensors were immersed in diluted Tanshinone I (2.5–100 μM in assay buffer) for 120 s to record the association signal, and then transferred back into Octet buffer to monitor the dissociation signal for 120 s. Reference wells containing buffer instead of Tanshinone I were included to correct for baseline shifts. Additionally, a parallel set of Ni-NTA sensors in buffer served as negative reference controls to account for nonspecific binding of the compounds to the biosensor surface. The data were processed using a double reference subtraction protocol to eliminate nonspecific signals, background noise, and signal drifts caused by biosensor variability. All assays were performed in 96-well black plates with a total volume of 200 μL per well at 30 °C. Data analysis, including correction and curve fitting, was carried out using Octet® Analysis Studio 12.2.2.26. The experiment was repeated three times.
(In BLI a coated tip is dipped into the sample, and binding shifts an interference pattern.)

Where a chain is given by its changes, count along the chain named. Entries after “also recorded” stand apart in the source; their conditions may differ.

As a reminder, the Kd is the equilibrium constant for the complex coming apart. In the case of `Cc1coc2c1C(=O)C(=O)c1c-2ccc2c(C)cccc12` [Tanshinone I], the “Effect on distribution of digestion fragments / conformation” value in assay [1] is “markedly altered the digestion fragment pattern; also recorded: significant change in the distribution of the bands”. In assay [2], this molecule showed a Kd of 37.8 ± 6.2 µM.
